{
  "source": "the supplement of paper PMC10307832",
  "test_in_all_cases": "relative viability (nuclei count vs DMSO), 5 days (fraction); higher = more cells survive",
  "key": {"[1]": {"compound": "Cn1cc(-c2cnn3c(N)c(Br)c([C@@H]4CCCNC4)nc23)cn1", "outline": "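Following overnight incubation at 37 °C, lung cancer cell lines in 1536-well plates were pinned with five library-drug doses (not always all listed) in √10 steps on vehicle-anchored plates. The cells then spent 5 days without medium change before a combined fix, permeabilisation and Hoechst stain, 4× imaging and MetaXpress nuclear counts. Viability is the treated-to-vehicle ratio of nuclei, taken as the median across plates. Only plates with control CV below 25% and at least one doubling passed.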"}, "[2]": {"compound": "Cn1cc(-c2cnn3c(N)c(Br)c([C@@H]4CCCNC4)nc23)cn1 + CC(C)C[C@H](NC(=O)[C@H](Cc1ccccc1)NC(=O)c1cnccn1)B(O)O [Bortezomib] (partner 0.002 µM)", "outline": "(§1)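 Lung cancer cell lines in 1536-well plates got either a single drug or a fixed anchor-drug dose together with five library-drug doses (not always all listed) in √10 steps, by pin tool, on the day after seeding. Nuclei were counted after 5 days, and relative viability is the treated-to-vehicle ratio of nuclei counts. Values are medians of duplicate plates.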"}, "[3]": {"compound": "Cn1cc(-c2cnn3c(N)c(Br)c([C@@H]4CCCNC4)nc23)cn1 + CC1(C)CCC(c2ccc(Cl)cc2)=C(CN2CCN(c3ccc(C(=O)NS(=O)(=O)c4ccc(N[C@H](CCN5CCOCC5)CSc5ccccc5)c(S(=O)(=O)C(F)(F)F)c4)cc3)CC2)C1 [Navitoclax] (partner 0.5 µM)", "outline": "as §1"}, "[4]": {"compound": "Cn1cc(-c2cnn3c(N)c(Br)c([C@@H]4CCCNC4)nc23)cn1 + COc1cc2c(Oc3ccc(NC(=O)C4(C(=O)Nc5ccc(F)cc5)CC4)cc3F)ccnc2cc1OCCCN1CCOCC1 [Foretinib] (partner 0.25 µM)", "outline": "as §1"}, "[5]": {"compound": "Cn1cc(-c2cnn3c(N)c(Br)c([C@@H]4CCCNC4)nc23)cn1 + CS(=O)(=O)CCNCc1ccc(-c2ccc3ncnc(Nc4ccc(OCc5cccc(F)c5)c(Cl)c4)c3c2)o1 [Lapatinib] (partner 2 µM)", "outline": "as §1"}, "[6]": {"compound": "Cn1cc(-c2cnn3c(N)c(Br)c([C@@H]4CCCNC4)nc23)cn1 + CS(=O)(=O)N1CCN(Cc2cc3nc(-c4cccc5[nH]ncc45)nc(N4CCOCC4)c3s2)CC1 [Pictilisib] (partner 1 µM)", "outline": "as §1"}, "[7]": {"compound": "Cn1cc(-c2cnn3c(N)c(Br)c([C@@H]4CCCNC4)nc23)cn1 + C[C@@H](Oc1cc(-c2cnn(C3CCNCC3)c2)cnc1N)c1c(Cl)ccc(F)c1Cl [Crizotinib] (partner 1 µM)", "outline": "as §1"}, "[8]": {"compound": "Cn1cc(-c2cnn3c(N)c(Br)c([C@@H]4CCCNC4)nc23)cn1 + C[C@]1(O)C[C@@H](c2nc(-c3ccc4ccc(-c5ccccc5)nc4c3)c3c(N)nccn32)C1 [Linsitinib] (partner 1 µM)", "outline": "as §1"}, "[9]": {"compound": "Cn1cc(-c2cnn3c(N)c(Br)c([C@@H]4CCCNC4)nc23)cn1 + Cc1nc(NC(=O)N2CCC[C@H]2C(N)=O)sc1-c1ccnc(C(C)(C)C(F)(F)F)c1 [Alpelisib] (partner 2 µM)", "outline": "as §1"}, "[10]": {"compound": "Cn1cc(-c2cnn3c(N)c(Br)c([C@@H]4CCCNC4)nc23)cn1 + O=C(c1cc(Cc2n[nH]c(=O)c3ccccc23)ccc1F)N1CCN(C(=O)C2CC2)CC1 [Olaparib] (partner 8 µM)", "outline": "as §1"}},
  "data": [
    {"cell line": "NCI-H1299", "values": [
      {"measurement": "relative viability", "setting": "[1]; 0.05 µM", "value": 1.03},
      {"measurement": "relative viability", "setting": "[1]; 0.1581 µM", "value": 1.07},
      {"measurement": "relative viability", "setting": "[1]; 0.5 µM", "value": 1.01},
      {"measurement": "relative viability", "setting": "[1]; 1.581 µM", "value": 0.926},
      {"measurement": "relative viability", "setting": "[1]; 5 µM", "value": 0.795},
      {"measurement": "relative viability", "setting": "[2]; first compound 0.05 µM", "value": 0.942},
      {"measurement": "relative viability", "setting": "[2]; first compound 0.1581 µM", "value": 1.04},
      {"measurement": "relative viability", "setting": "[2]; first compound 0.5 µM", "value": 0.994},
      {"measurement": "relative viability", "setting": "[2]; first compound 1.581 µM", "value": 1.03},
      {"measurement": "relative viability", "setting": "[2]; first compound 5 µM", "value": 0.985},
      {"measurement": "relative viability", "setting": "[3]; first compound 0.05 µM", "value": 1.03},
      {"measurement": "relative viability", "setting": "[3]; first compound 0.1581 µM", "value": 1.06},
      {"measurement": "relative viability", "setting": "[3]; first compound 0.5 µM", "value": 1.08},
      {"measurement": "relative viability", "setting": "[3]; first compound 1.581 µM", "value": 1.02},
      {"measurement": "relative viability", "setting": "[3]; first compound 5 µM", "value": 0.936},
      {"measurement": "relative viability", "setting": "[4]; first compound 0.05 µM", "value": 1.08},
      {"measurement": "relative viability", "setting": "[4]; first compound 0.1581 µM", "value": 1.14},
      {"measurement": "relative viability", "setting": "[4]; first compound 0.5 µM", "value": 1.12},
      {"measurement": "relative viability", "setting": "[4]; first compound 1.581 µM", "value": 0.988},
      {"measurement": "relative viability", "setting": "[4]; first compound 5 µM", "value": 0.833},
      {"measurement": "relative viability", "setting": "[5]; first compound 0.05 µM", "value": 0.982},
      {"measurement": "relative viability", "setting": "[5]; first compound 0.1581 µM", "value": 0.976},
      {"measurement": "relative viability", "setting": "[5]; first compound 0.5 µM", "value": 0.923},
      {"measurement": "relative viability", "setting": "[5]; first compound 1.581 µM", "value": 0.767},
      {"measurement": "relative viability", "setting": "[5]; first compound 5 µM", "value": 0.757},
      {"measurement": "relative viability", "setting": "[6]; first compound 0.05 µM", "value": 0.876},
      {"measurement": "relative viability", "setting": "[6]; first compound 0.1581 µM", "value": 0.562},
      {"measurement": "relative viability", "setting": "[6]; first compound 0.5 µM", "value": 0.462},
      {"measurement": "relative viability", "setting": "[6]; first compound 1.581 µM", "value": 0.175},
      {"measurement": "relative viability", "setting": "[6]; first compound 5 µM", "value": 0.223},
      {"measurement": "relative viability", "setting": "[7]; first compound 0.05 µM", "value": 0.992},
      {"measurement": "relative viability", "setting": "[7]; first compound 0.1581 µM", "value": 0.931},
      {"measurement": "relative viability", "setting": "[7]; first compound 0.5 µM", "value": 0.965},
      {"measurement": "relative viability", "setting": "[7]; first compound 1.581 µM", "value": 0.676},
      {"measurement": "relative viability", "setting": "[7]; first compound 5 µM", "value": 0.707},
      {"measurement": "relative viability", "setting": "[8]; first compound 0.05 µM", "value": 1.02},
      {"measurement": "relative viability", "setting": "[8]; first compound 0.1581 µM", "value": 1.04},
      {"measurement": "relative viability", "setting": "[8]; first compound 0.5 µM", "value": 0.959},
      {"measurement": "relative viability", "setting": "[8]; first compound 1.581 µM", "value": 0.833},
      {"measurement": "relative viability", "setting": "[8]; first compound 5 µM", "value": 0.626},
      {"measurement": "relative viability", "setting": "[9]; first compound 0.05 µM", "value": 1.03},
      {"measurement": "relative viability", "setting": "[9]; first compound 0.1581 µM", "value": 1.13},
      {"measurement": "relative viability", "setting": "[9]; first compound 0.5 µM", "value": 1.09},
      {"measurement": "relative viability", "setting": "[9]; first compound 1.581 µM", "value": 1.05},
      {"measurement": "relative viability", "setting": "[9]; first compound 5 µM", "value": 0.954},
      {"measurement": "relative viability", "setting": "[10]; first compound 0.05 µM", "value": 0.981},
      {"measurement": "relative viability", "setting": "[10]; first compound 0.1581 µM", "value": 0.968},
      {"measurement": "relative viability", "setting": "[10]; first compound 0.5 µM", "value": 1},
      {"measurement": "relative viability", "setting": "[10]; first compound 1.581 µM", "value": 0.738},
      {"measurement": "relative viability", "setting": "[10]; first compound 5 µM", "value": 0.472}
    ]}
  ]
}
